Test [1] has as its system Gram-positive S. mutans and Gram-negative E. coli bacteria. In words: Peptide bacterial binding and aggregation studies. The settings on record: synthetic peptides. The protocol:
For quantitative measurements of bacterial aggregation, we added 200 μl peptide stock solution (1 mg/ml in 10% DMSO) diluted with 300 μl TBS containing 0.1% v/v Tween 20 and 1 mM CaCl2 (TBS-TC) to 500 μl of the respective bacterial suspensions to obtain final peptide concentrations of […]. As controls, we used bacterial suspensions, to which 200 μl 10% (v/v %) DMSO in H2O and 300 μl TBS-TC were added. Bacterial aggregation was monitored by measuring the optical density at 700 nm in intervals of 1 min for 1 h in a spectrophotometer (UVICON 930, Kontron Instruments). For the semi-quantitative high-throughput competition assays, we first determined the allowed pH range for DMBT1pbs1-mediated aggregation of S. gordonii and E. coli by using TBS-TC adjusted with either HCl or NaOH. […] For monitoring competitive effects, we preincubated 20 μl of the DMBT1pbs1 stock solution (20 μg) with 20 μl of the respective substance solutions in 48-well microtiter plates at room temperature (RT) for 2 min. As reference served 20 μl 10% (v/v) DMSO solution in H2O mixed with 20 μl of the solvents of the respective substances. Afterwards, 100 μl of S. gordonii or E. coli (resuspended in TBS-TC or TBS-T, respectively, for the calcium-free assays) solution was added simultaneously to each well using a multichannel pipette. […]

Another test deals with HIV-gp120 (Human immunodeficiency virus type 1 group M subtype B, UniProt P04578). The conditions noted are these: S. gordonii binding to immobilized SRCRP2 in absence and presence of HIV-gp120.

Source text for HIV-gp120: Left panel: peptide SRCRP2 (containing DMBT1pbs1) was immobilized on ELISA plates and bacterial binding (S. gordonii) was quantified in the absence and presence of different concentrations of HIV-gp120.

Consider GRVEVLYRGSW [DMBT1pbs1], for which, in test [1], the “bacterial binding and aggregation activity (Gram-positive and -negative bacteria)” value is “sufficient and necessary for interaction with Gram-positive and -negative bacteria”. For the same sequence, in the test with HIV-gp120, the HIV-gp120 binding activity entry is recorded as “exerts HIV-gp120 binding activity”.

For the origin of these results see patent US8017124B2, “Use of DMBT1 for capturing sulphate and phosphate group exposing agents” (priority 2004, dated 2011).
